Test results published in patent publication US20070020329A1, “Methods of formulating linezolid” (priority 2005, published 2007).

Experiment: Polymorphic stability of solid linezolid Form IV, alone and in contact with solvents
Type: physicochemical
Description: As a consequence, pharmaceutical compositions comprising linezolid Form IV substantially free of linezolid Form II are difficult to prepare.

SMILES: CC(=O)NC[C@H]1CN(c2ccc(N3CCOCC3)c(F)c2)C(=O)O1 [linezolid Form IV, N-[[(5S)-3-[3-fluoro-4-(4-morpholinyl)phenyl]-2-oxo-5-oxazolidinyl]methyl]acetamide]
- conversion of Form IV to Form II (in words) (contacted with solvents, in particular ethanol): readily transforms to linezolid Form II
- conversion of solid Form IV to Form II (in words) (solid, at least 3 months at temperatures between 25 and 40° C.): does not convert to linezolid Form II
